Results from US8980077B2, “Plating bath and method” (Rohm and Haas Electronic Materials LLC, priority 2012, dated 2015).
Values after ≈ are worked out from the molar mass of the structure shown.

Legend:
[1] = Solubility in 17% methane sulfonic acid (MSA)/DI water solution; conditions: aqueous with cosolvent or surfactant or cyclodextrin, thermodynamic from solid
Procedure: (§2) If a compound dissolved, then an additional 25 mg (in increments) of that compound was added until either no more would dissolve or 250 mg were dissolved in the 5 mL.

[2] = Stability in 17% MSA/water at 50° C., visual inspection for precipitation; conditions: for Stability (at 50° C.): 5 mg in 1 mL 17% MSA/water, time without precipitation; for Stability compared with Comparatives 1 and 2: 17% MSA/water
Procedure: The stability of various compounds was determined as follows: 5 mg of a compound was dissolved into 1 mL of 17% MSA/water solution and placed in a glass vial. Each vial was capped and placed in a dry heating bath at 50° C. for up to three weeks. Each sample was periodically removed from the bath and visually inspected for evidence of precipitation.

[3] = Stability Test 1: DI water solution plus aqueous MSA (70%), 50° C. oven, visual inspection for precipitate; type: physicochemical; conditions: 5.96 mg/mL in DI water plus aqueous MSA (70%)
Procedure: (§1) The stability of Compound 6 and Comparative 1 were determined using 2 different tests. In Test 1, solutions of each of Compound 6 and Comparative 1 dissolved in DI water (at a concentration of 5.96 mg/mL) were placed in separate vials. To each vial was added aqueous MSA (70%), the vials were then capped, placed in a 50° C. oven, and periodically visually inspected for the formation of precipitate. […] In Test 2, solutions of each of Compound 6 and Comparative 1 dissolved in D2O (at a concentration of 5.96 mg/mL) were placed in separate NMR tubes. A ^1H NMR (400 MHz) spectrum was obtained for each solution. Next, a solution of MSA (70%) dissolved in D2O was prepared and added to each NMR tube. A second ^1H NMR spectrum was immediately taken of each sample. Next, the NMR tubes were placed in a 50° C. oven, and periodically removed, analyzed by ^1H NMR, and returned to the oven.

[4] = Stability Test 2: D2O solution plus MSA (70%), 50° C. oven, 1H NMR; type: physicochemical
Procedure: as §1

physchem = conditions: aqueous with cosolvent or surfactant or cyclodextrin, thermodynamic from solid
Procedure: as §2

[5] = Extended storage or long-term use in tin-silver electroplating bath (prior-art complexers); type: physicochemical
From the text: U.S. Pat. No. 6,998,036 discloses an acidic tin-silver alloy electroplating bath containing a certain sulfide or thiol-substituted ether compound.
U.S. Pat. No. 7,628,903 discloses conventional silver and silver-alloy electroplating baths containing certain sulfide compounds. This patent purports that these electroplating baths have good stability.

| Structure (SMILES) | solubility [1] [mg/mL] | Stability (at 50° C.) [2] | also measured |
| --- | --- | --- | --- |
| O=C(O)CC(SCSC(CC(=O)O)C(=O)O)C(=O)O (stereo not drawn) [Compound 9, 2,2′-(Methylenebis(sulfanediyl))disuccinic acid] | ~10 (≈ 32 mM) | >3 weeks |  |
| OCCCSCCSCCCO [Compound 6, 3,3′-[1,2-Ethanediylbis(thio)]bis-1-propanol] |  | >3 weeks | Formation of precipitate (Test 1, visual inspection) ([3]; after 120 hours): no precipitate formation; Change of 1H NMR spectrum (Test 2) ([4]; 5.96 mg/mL in D2O plus MSA (70%), 50° C., after 7 days): no change in the ^1H NMR spectrum; solubility (physchem): 5000 µg/mL (≈ 23.8 mM); Stability compared with Comparatives 1 and 2 [2]: significantly better |
| O=C(O)CSCSCC(=O)O [Compound 8, 2,2′-(Methylenebis(sulfanediyl))diacetic acid] | > 50 | >3 weeks |  |
| OCCSCCSCCO [Comparative 1, 2,2′-[1,2-ethanediylbis(thio)]bis-ethanol, reference compound] | 30 to 35 (≈ 165 to 192 mM) | <24 h | Formation of precipitate (Test 1, visual inspection) ([3]; after 60 hours): a copious amount of a white, flocculent precipitate; Change of 1H NMR spectrum (Test 2) ([4]; 5.96 mg/mL in D2O, immediately upon addition of the MSA solution): loss of the ^1H NMR spectrum; Behaviour upon extended storage or long term use in the electroplating bath [5]: polymerize |
| OCCSCSCCO [Comparative 2, 2,2′-(Methylenebis(sulfanediyl))diethanol, reference compound] | > 50 | <1 week |  |
| OCCCSCSCCCO [Compound 7, 3,3′-(Methylenebis(sulfanediyl))dipropanol] | > 50 | >3 weeks | Stability compared with Comparatives 1 and 2 [2]: significantly better |

More lines, main results first:

| solubility [1] [mg/mL] | Stability (at 50° C.) [2] | Structure (SMILES) | also measured |
| --- | --- | --- | --- |
| < 5 |  | NC(=O)CCSCCSCCC(N)=O [Compound 1, 3,3′-(Ethane-1,2-diylbis(sulfanediyl))dipropanamide] |  |
| < 5 |  | O=C(O)CCSCCSCCC(=O)O [Compound 2, 3,3′-(Ethane-1,2-diylbis(sulfanediyl))dipropanoic acid] |  |
| > 50 | >3 weeks | O=S(=O)(O)CCCSCCCSCCCS(=O)(=O)O [Compound 12, 3,3′-(Propane-1,3-diylbis(sulfanediyl))dipropyl sulfonate] |  |
| > 60 |  | O=S(=O)(O)CCCSCCSCCCS(=O)(=O)O [Compound 5, 3,3′-(ethane-1,2-diylbis(sulfanediyl))bis(propane-1-sulfonic acid)] |  |
| > 50 | >3 weeks | O=C(O)CSCCCSCC(=O)O [Compound 10, 2,2′-(Propane-1,3-diylbis(sulfanediyl))diacetic acid] |  |
| 30 (≈ 143 mM) |  | O=C(O)CSCCSCC(=O)O [Compound 3, 2,2′-(Ethane-1,2-diylbis(sulfanediyl))diacetic acid] |  |
| > 50 | >3 weeks | O=S(=O)(O)CCSCCCSCCS(=O)(=O)O [Compound 11, 2,2′-(Propane-1,3-diylbis(sulfanediyl))diethyl sulfonate] |  |
| > 60 |  | O=S(=O)(O)CCSCCSCCS(=O)(=O)O [Compound 4, 2,2′-(Ethane-1,2-diylbis(sulfanediyl))diethanesulfonic acid] |  |
